Experimental data published in patent US20250206722A1, “SMALL MOLECULE INHIBITORS OF TEA DOMAIN FAMILY MEMBERS” (The Scripps Research Institute, priority 2022, published 2025).
pIC50: −log10 of the molar value.

Experiments:
NCI-H226 cells [1] = experiment: NCI-H226 proliferation assay (in house); format: cell-based; conditions: Homo sapiens, 120 h, 5 days, Cell TiterGlo, 20-point 1:2 dilution from 20 μM
Procedure, shortened: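 Viability by CellTiter-Glo luminescence after 5-day compound exposure at 37 °C, 5% CO2. Compounds added 24 h post-seeding (500 cells/well, RPMI 1640 with 10% FBS) as 20-point, 2-fold series from 20 μM final, triplicate wells.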

[2] = test system: transcriptional activity of TEADs; experiment: TEAD reporter assay (MCF7 TEAD-LUC reporter cells); format: cell-based; conditions: Homo sapiens, 24 hours, BrightGlo luminescence
Procedure, shortened: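 Luminescence (BrightGlo) was read after 24 h of compound treatment at 37 °C, 5 % CO2. Cells had been seeded at 5,000 per well in DMEM with 10 % FBS and insulin and rested 24 h first. Dosing used 20 points, 1:2 dilution from 20 μM final, triplicates.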

NCI-H226 cells [3] = experiment: NCI-H226 proliferation assay (Wuxi AppTec); format: cell-based; conditions: Homo sapiens, 168 h, 7 days, CellTiter-Glo, top dose 10, 3-fold dilution, 9 doses
Experimental: […] Proliferation Assay (From Wuxi AppTec CO.):
Day −1: Seeding cells • (1) Equilibrate cell culture medium to 37° C. • (2) Remove and discard the culture medium. • (3) Briefly rinse the cell layer with PBS to remove all traces of serum that contains […]. • (4) Add 2-3 mL of Trypsin-EDTA solution to flask and observe cells under an inverted microscope until cell layer is dispersed. • (5) Add 6-8 mL of growth medium to terminate the digestion of Trypsin/EDTA. • (6) Centrifuge the mixture (Trypsin EDTA and the growth medium) at 1000 rpm for 5 mins. • (7) Discard the supernatant, suspend the cell precipitation with the fresh growth medium, then take 1 mL the cell suspension to count cells with Vi-cell XR cell viability analyzer. • (8) Adjust the cell density to 500 cells/well for 384-well plates. • (9) Add 50 µL/well volume cell suspension to the assay plate. • (10) Add […] media to the control columns. • (11) Incubate the plate at 37° C., 5% CO2 for overnight. Day 0: Compounds treatment • (1) Add cpds to each well by Tecan HP D300E. The top dose is […], 3-fold dilution and 9 doses. DMSO final concentration will be normalized to 0.2%. • (2) Incubate the assay plate at 37° C., 5% CO2 for 7 days. Day 7: Plate read • (1) Equilibrate the assay plate to the room temperature for nearly 30 minutes. • (2) Add […] CellTiter-Glo reagent to each well and shake the plate for 1 min, incubate 10 min and keep them from light. • (3) Detect the plate by EnVision. Data analysis:
Max: Average of the DMSO group Min: Average of medium group.

IMR32 cells = experiment: IMR32 cytotoxicity assay; format: cell-based; conditions: Homo sapiens, IMR-32, 72 h, 3 days, Cell TiterGlo
[4] = Pharmacokinetic studies in mice; format: in vivo, mouse; conditions: for Vd / clearance / half-life: mouse plasma; for Vd / clearance: intravenous 2 mg/kg in 75% PEG 300+25% D5W; for half-life: intravenous 2 mg/kg, oral 10 mg/kg in 75% PEG 300+25% D5W; for bioavailability: plasma, mouse, oral 10 mg/kg vs intravenous 2 mg/kg in 75% PEG 300+25% D5W
Experimental: Pharmacokinetic Studies in mice: The plasma pharmacokinetic profiles of representative compounds were evaluated in mouse via intravenous (2 mg/kg in 75% PEG 300+25% D5W solution) and oral (10 mg/kg in 75% PEG 300+25% D5W solution) dosing routes.

| SMILES | IC50 (NCI-H226 cells [1]) | pIC50 [2] | IC50 (NCI-H226 cells [3]) | Vd [4] | clearance [4] | half-life [4] | bioavailability [4] | pIC50 (IMR32 cells) |
| --- | --- | --- | --- | --- | --- | --- | --- | --- |
| C=CC(=O)N1CCC(c2nccnc2Nc2ccc(C(F)(F)F)cc2)CC1 [Example 26, 1-[4-(3-{[4-(trifluoromethyl)phenyl]amino}pyrazin-2-yl)piperidin-1-yl]prop-2-en-1-one] | 0.009 µM | 8.70 | 0.02 µM | – | – | – | – | 5.00 |
| C=CC(=O)N1CCN(c2nccnc2Nc2ccc(C(F)(F)F)cn2)CC1 [Example 39, 1-(4-(3-((5-(trifluoromethyl)pyridin-2-yl)amino)pyrazin-2-yl)piperazin-1-yl)prop-2-en-1-one] | 0.016 µM | 8.30 | 0.015 µM | 1.8 L/kg | 39.5 mL/min/kg | 30 min | 90% | < 4.70 |
| C=CC(=O)N1CCN(c2nccnc2Nc2ccc(OC(F)(F)F)cc2)CC1 [Example 34, 1-(4-(3-((4-(trifluoromethoxy)phenyl)amino)pyrazin-2-yl)piperazin-1-yl)prop-2-en-1-one] | 0.007 µM | 8.70 | 0.006 µM | – | – | – | – | < 5.00 |
| C=CC(=O)N1CCN(c2nc(C)cnc2Nc2ccc(C(F)(F)F)cc2)CC1 [Example 112, 1-(4-(6-methyl-3-((4-(trifluoromethyl)phenyl)amino)pyrazin-2-yl)piperazin-1-yl)prop-2-en-1-one] | 0.011 µM | 8.74 | 0.009 µM | – | – | – | – | 5.00 |
| C=CC(=O)N1CCC(c2nccnc2Oc2ccc(C(F)(F)F)nc2)CC1 [Example 79, 1-(4-(3-((6-(trifluoromethyl)pyridin-3-yl)oxy)pyrazin-2-yl)piperidin-1-yl)prop-2-en-1-one] | 0.017 µM | 8.70 | 0.028 µM | 1.73 L/kg | 47.3 mL/min/kg | 24 min | 109% | – |
| C=CC(=O)N1CCN(c2nccnc2Oc2ccc(C(F)(F)F)cn2)CC1 [Example 73, 1-(4-(3-((5-(trifluoromethyl)pyridin-2-yl)oxy)pyrazin-2-yl)piperazin-1-yl)prop-2-en-1-one] | 0.025 µM | 8.52 | 0.032 µM | – | – | – | – | < 4.70 |

Now from value to compound, other results behind:

| IC50 (NCI-H226 cells [1]) | pIC50 [2] | IC50 (NCI-H226 cells [3]) | Vd [4] | clearance [4] | half-life [4] | bioavailability [4] | SMILES | pIC50 (IMR32 cells) |
| --- | --- | --- | --- | --- | --- | --- | --- | --- |
| 0.0155 µM | 8.69 | 0.018 µM | – | – | – | – | C=CC(=O)N1CCN(c2nccnc2Nc2ccc(S(F)(F)(F)(F)F)cc2)CC1 [Example 31, 1-(4-(3-((4-(pentafluoro-16-sulfaneyl)phenyl)amino)pyrazin-2-yl)piperazin-1-yl)prop-2-en-1-one] | < 5.30 |
| 0.0166 µM | 8.74 | 0.0143 µM | 7 L/kg | 42.2 mL/min/kg | 126 min | 94.4% | C=CC(=O)N1CCN(c2nccnc2Nc2ccc(C(F)(F)F)cc2)CC1 [Compound 1, 1-(4-(3-((4-(trifluoromethyl)phenyl)amino)pyrazin-2-yl)piperazin-1-yl)prop-2-en-1-one] | < 5.00 |
